# Laboratory results taken from US20130323167A1, “DETECTING AND TREATING SOLID TUMORS THROUGH SELECTIVE DISRUPTION OF TUMOR VASCULATURE” (THE JOHNS HOPKINS UNIVERSITY, priority 2010, published 2013).
# Assays:
# subcutaneous CT26 tumors = assay type: in vivo, BALB/c mice; settings: injection of the agent instead of TNF-α
# Description: All animal experiments were overseen and approved by the Animal Welfare Committee of Johns Hopkins University, and were in compliance with the University standards. For the subcutaneous tumor model, female, six to eight week-old BALB/c mice (Harlan Breeders) were used. Five million CT26 cells were injected subcutaneously into the right flank of each mouse and allowed to grow for ˜10 days before randomization, group assignment, and treatment. C. novyi-NT spores were administered by a bolus tail vein injection of 300 million spores suspended in 0.2 mL of phosphate buffered saline, pH 7.5 (PBS). Cytotoxic anticancer agents were administered 16 hours later via the same route. TNF-α was reconstituted freshly before administration in doubly-distilled H2O at 100 ng/mL and diluted into 0.1% (w/v) BSA in PBS at a final concentration of 10 ng/mL. Cytotoxic agents were injected within a few minutes thereafter. Tumor volume was calculated as […]. For the orthotopic brain tumor model, female C57BL6 mice, 5-6 weeks of age, were purchased from the NCI-Frederick. […] Animals were monitored for potential side effects following drug administration. […]
# CT26 tumors = assay: Treatment of fully developed subcutaneous CT26 tumors (tumor volume, survival); assay type: in vivo, BALB/c mice; settings: TNF-α 25 ng/kg combined with Doxil or ^131I-labeled IgG
# Description: For the subcutaneous tumor model, female, six to eight week-old BALB/c mice (Harlan Breeders) were used. Five million CT26 cells were injected subcutaneously into the right flank of each mouse and allowed to grow for ˜10 days before randomization, group assignment, and treatment. C. novyi-NT spores were administered by a bolus tail vein injection of 300 million spores suspended in 0.2 mL of phosphate buffered saline, pH 7.5 (PBS). Cytotoxic anticancer agents were administered 16 hours later via the same route. TNF-α was reconstituted freshly before administration in doubly-distilled H2O at 100 ng/mL and diluted into 0.1% (w/v) BSA in PBS at a final concentration of 10 ng/mL. Cytotoxic agents were injected within a few minutes thereafter. Tumor volume was calculated as length×width×0.5.
# [1] = multiple injections (3 infusions/week) of a dose comparable to the highest mouse dose; cited from earlier work
Molecule,induction of E^2PR by microtubule-interacting agent (subcutaneous CT26 tumors),cures and survival at lower dose of TNF-α (CT26 tumors),tolerability in humans [1]
CCC1=C[C@@H]2CN(C1)Cc1c([nH]c3ccccc13)[C@@](C(=O)OC)(c1cc3c(cc1OC)N(C)[C@H]1[C@@](O)(C(=O)OC)[C@H](OC(C)=O)[C@]4(CC)C=CCN5CC[C@]31[C@@H]54)C2 [vinorelbine],"resulted in E^2PR, though not as impressively as TNF-α",,
TNF-α,,"none of the treated animals were cured, although prolonged survival was observed",tolerate
"COc1ccc(/C=C\c2cc(OC)c(OC)c(OC)c2)cc1OP(=O)(O)O [Combretastatin A4P, combretastatin A4 phosphate]","resulted in E^2PR, though not as impressively as TNF-α",,
